Assay results reported in PubChem BioAssay (NCI).
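Growth conditions: 96-well plates. Treatment: test compound, 48 hours, 5 concentrations. Analysis: linear interpolation between bracketing concentrations; unreached endpoints set to highest concentration. TGI: total growth inhibition.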

Tests used:
Test in all cases: inhibition of tumour cell growth, NCI panel, 48 h
HCC-2998 colon = tested on: HCC-2998 colon
UO-31 renal = tested on: UO-31 renal
DU-145 prostate = tested on: DU-145 prostate
RPMI-8226 leukemia = tested on: RPMI-8226 leukemia
HCT-15 colon = tested on: HCT-15 colon
MOLT-4 leukemia = tested on: MOLT-4 leukemia
HT29 colon = tested on: HT29 colon
U251 CNS = tested on: U251 CNS
HOP-62 NSCLC = tested on: HOP-62 NSCLC
SF-268 CNS = tested on: SF-268 CNS
RXF 393 renal = tested on: RXF 393 renal
M14 melanoma = tested on: M14 melanoma
SNB-75 CNS = tested on: SNB-75 CNS
CCRF-CEM leukemia = tested on: CCRF-CEM leukemia
LOX IMVI melanoma = tested on: LOX IMVI melanoma
A498 renal = tested on: A498 renal
OVCAR-8 ovarian = tested on: OVCAR-8 ovarian
SK-MEL-2 melanoma = tested on: SK-MEL-2 melanoma
SR leukemia = tested on: SR leukemia
MDA-MB-435 = tested on: MDA-MB-435
SF-539 CNS = tested on: SF-539 CNS
UACC-62 melanoma = tested on: UACC-62 melanoma
SF-295 CNS = tested on: SF-295 CNS
SN12C renal = tested on: SN12C renal
UACC-257 melanoma = tested on: UACC-257 melanoma
NCI-H460 lung = tested on: NCI-H460 lung
SK-OV-3 ovarian = tested on: SK-OV-3 ovarian
HS 578T breast = tested on: HS 578T breast
SK-MEL-5 melanoma = tested on: SK-MEL-5 melanoma
OVCAR-3 ovarian = tested on: OVCAR-3 ovarian
A549 NSCLC = tested on: A549 NSCLC
MALME-3M melanoma = tested on: MALME-3M melanoma
HOP-92 NSCLC = tested on: HOP-92 NSCLC
K-562 leukemia = tested on: K-562 leukemia
NCI-H522 lung = tested on: NCI-H522 lung
SNB-19 CNS = tested on: SNB-19 CNS
EKVX NSCLC = tested on: EKVX NSCLC
HL-60(TB) leukemia = tested on: HL-60(TB) leukemia
COLO 205 colon = tested on: COLO 205 colon
PC-3 prostate = tested on: PC-3 prostate
SW-620 colon = tested on: SW-620 colon
NCI-H226 lung = tested on: NCI-H226 lung
NCI/ADR-RES ovarian = tested on: NCI/ADR-RES ovarian
OVCAR-4 ovarian = tested on: OVCAR-4 ovarian
T-47D breast = tested on: T-47D breast
MCF7 breast = tested on: MCF7 breast
CAKI-1 renal = tested on: CAKI-1 renal
IGROV1 ovarian = tested on: IGROV1 ovarian
SK-MEL-28 melanoma = tested on: SK-MEL-28 melanoma
KM12 colon = tested on: KM12 colon
HCT-116 colon = tested on: HCT-116 colon
NCI-H23 lung = tested on: NCI-H23 lung
BT-549 breast = tested on: BT-549 breast
OVCAR-5 ovarian = tested on: OVCAR-5 ovarian
786-0 renal = tested on: 786-0 renal
MDA-MB-231 breast = tested on: MDA-MB-231 breast
TK-10 renal = tested on: TK-10 renal
ACHN renal = tested on: ACHN renal

Measured: TGI

CCOC(=O)c1c(-c2ccccc2)oc(=O)c(Cc2cccc3cccnc23)c1-c1ccccc1
> 10 µM: HCC-2998 colon | UO-31 renal | DU-145 prostate | RPMI-8226 leukemia | HCT-15 colon | MOLT-4 leukemia | HT29 colon | U251 CNS | HOP-62 NSCLC | SF-268 CNS | RXF 393 renal | M14 melanoma | SNB-75 CNS | CCRF-CEM leukemia | LOX IMVI melanoma | A498 renal | OVCAR-8 ovarian | SK-MEL-2 melanoma | SR leukemia | MDA-MB-435 | SF-539 CNS | UACC-62 melanoma | SF-295 CNS | SN12C renal | UACC-257 melanoma | NCI-H460 lung | SK-OV-3 ovarian | HS 578T breast | SK-MEL-5 melanoma | OVCAR-3 ovarian | A549 NSCLC | MALME-3M melanoma | HOP-92 NSCLC | K-562 leukemia | NCI-H522 lung | SNB-19 CNS | EKVX NSCLC | HL-60(TB) leukemia | COLO 205 colon | PC-3 prostate | SW-620 colon | NCI-H226 lung | NCI/ADR-RES ovarian | OVCAR-4 ovarian | T-47D breast | MCF7 breast | CAKI-1 renal | IGROV1 ovarian | SK-MEL-28 melanoma | KM12 colon | HCT-116 colon | NCI-H23 lung | BT-549 breast | OVCAR-5 ovarian | 786-0 renal | MDA-MB-231 breast | TK-10 renal | ACHN renal
